Measurements published in PMC9335333 (Proceedings of the National Academy of Sciences of the …, 2022).

Molecular target: T1, vesicular nucleotide transporter (VNUT) (Homo sapiens, UniProt Q9BYT1)
T1 sequence (Q9BYT1 1-436): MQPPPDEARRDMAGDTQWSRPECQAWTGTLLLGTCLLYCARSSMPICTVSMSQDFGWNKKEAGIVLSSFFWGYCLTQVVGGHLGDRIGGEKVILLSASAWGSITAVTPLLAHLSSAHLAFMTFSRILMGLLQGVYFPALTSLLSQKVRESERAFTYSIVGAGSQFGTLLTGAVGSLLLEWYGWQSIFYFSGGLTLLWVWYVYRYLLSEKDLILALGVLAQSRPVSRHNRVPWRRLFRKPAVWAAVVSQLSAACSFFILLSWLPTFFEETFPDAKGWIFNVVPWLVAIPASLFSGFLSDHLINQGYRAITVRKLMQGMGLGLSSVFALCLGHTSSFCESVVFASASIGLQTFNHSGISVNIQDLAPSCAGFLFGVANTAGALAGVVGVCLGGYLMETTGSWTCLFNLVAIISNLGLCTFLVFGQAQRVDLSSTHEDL
Assay: [3H]-ATP uptake in proteoliposomes with purified human VNUT
Format: biochemical

For `CC/C=C\C/C=C\C/C=C\C/C=C\C/C=C\CCCC(=O)O` [EPA, eicosapentaenoic acid], the IC50 was 67 nM.
